According to US7763627B2, “Tie-2 modulators and methods of use” (Exelixis, Inc., priority 2003, dated 2010):

Target: Tie-2 (Homo sapiens, UniProt Q02763)
Experiment: Tie-2 tyrosine kinase inhibition (ATP consumption by luciferase/luciferin chemiluminescence or 33P-ATP incorporation into pEY substrate)
Assay type: biochemical
Conditions: human enzyme Tie-2; inhibition given as class symbol
Description: Tyrosine kinase activity is determined by 1) measurement of kinase-dependent ATP consumption by in the presence of a generic substrate such as polyglutamine, tyrosin (pEY), by luciferase/luciferin-mediated chemiluminescence or; 2) incorporation of radioactive phosphate derived from ^33P-ATP into a generic substrate which has been adsorbed onto the well surface of polystyrene microtiter plates. Phosphorylated substrate products are quantified by scintillation spectrometry.
Inhibition is indicated as IC50 with following key: A=IC50 less than 50 nM, B=IC50 greater than 50 nM, but less than or equal to 1000 nM, C=IC50 greater than 1000 nM, but less than 10,000 nM, and D=IC50 10,000 nM or greater. The abbreviation for human enzyme, Tie-2, is defined as tyrosine kinase with immunoglobulin and EGF repeats.

Tie-2, sequence (Q02763 23-1124): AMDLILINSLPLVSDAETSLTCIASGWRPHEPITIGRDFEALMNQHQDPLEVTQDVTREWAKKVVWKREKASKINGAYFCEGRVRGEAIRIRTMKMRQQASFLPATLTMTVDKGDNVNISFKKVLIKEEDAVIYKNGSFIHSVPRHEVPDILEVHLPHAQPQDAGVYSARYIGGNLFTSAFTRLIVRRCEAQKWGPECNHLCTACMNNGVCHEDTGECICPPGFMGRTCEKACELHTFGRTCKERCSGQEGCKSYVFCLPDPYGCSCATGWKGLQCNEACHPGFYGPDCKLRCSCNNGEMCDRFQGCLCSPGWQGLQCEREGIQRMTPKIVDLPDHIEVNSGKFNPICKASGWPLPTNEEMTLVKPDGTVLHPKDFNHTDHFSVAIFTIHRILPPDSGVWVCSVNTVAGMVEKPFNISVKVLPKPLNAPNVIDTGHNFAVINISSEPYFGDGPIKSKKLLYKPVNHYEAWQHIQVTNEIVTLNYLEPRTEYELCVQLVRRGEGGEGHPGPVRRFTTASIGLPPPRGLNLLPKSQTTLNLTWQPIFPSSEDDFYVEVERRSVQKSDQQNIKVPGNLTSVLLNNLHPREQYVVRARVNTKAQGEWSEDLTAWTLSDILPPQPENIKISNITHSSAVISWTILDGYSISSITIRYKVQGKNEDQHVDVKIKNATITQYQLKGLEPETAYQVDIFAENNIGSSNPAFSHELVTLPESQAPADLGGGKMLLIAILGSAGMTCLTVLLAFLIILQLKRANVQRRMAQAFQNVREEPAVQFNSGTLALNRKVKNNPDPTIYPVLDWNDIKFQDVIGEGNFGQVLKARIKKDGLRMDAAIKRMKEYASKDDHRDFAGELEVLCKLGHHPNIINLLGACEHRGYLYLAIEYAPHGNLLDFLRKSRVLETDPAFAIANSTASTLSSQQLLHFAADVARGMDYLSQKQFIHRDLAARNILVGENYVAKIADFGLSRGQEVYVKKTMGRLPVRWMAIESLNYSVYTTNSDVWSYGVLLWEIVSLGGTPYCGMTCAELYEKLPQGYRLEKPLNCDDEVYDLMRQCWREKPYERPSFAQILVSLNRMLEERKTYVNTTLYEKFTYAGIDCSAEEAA

| SMILES | IC50 |
| --- | --- |
| Nc1ccncc1-c1nc(N[C@H]2c3ccccc3C[C@H]2O)c2ccccc2n1 [Compound 59, (1S,2R)-1-{[2-(4-aminopyridin-3-yl)quinazolin-4-yl]amino}-2,3-dihydro-1H-inden-2-ol] | ≥ 10 µM |
| c1ccc(CO[C@H]2CCC[C@@H]2Nc2nc(-c3ccncc3)nc3ccccc23)cc1 [Compound 22, N-{(1S,2S)-2-[(phenylmethyl)oxy]cyclopentyl}-2-pyridin-4-ylquinazolin-4-amine] | ≥ 10 µM |
| O[C@@H]1CCC[C@H]1Nc1nc(-c2cccnc2)nc2ccccc12 [Compound 35, (1R,2R)-2-[(2-pyridin-3-ylquinazolin-4-yl)amino]cyclopentanol] | ≥ 10 µM |
| c1ccc2c(N[C@H]3CCCNC3)nc(-c3ccncc3)nc2c1 [Compound 50, N-[(3S)-piperidin-3-yl]-2-pyridin-4-ylquinazolin-4-amine] | ≥ 10 µM |
| Fc1ccc(CNc2nc(-c3ccncc3)nc3ccccc23)cc1 [Compound 7, N-[(4-fluorophenyl)methyl]-2-pyridin-4-ylquinazolin-4-amine] | 1 to 10 µM |
| O[C@@H]1Cc2ccccc2[C@@H]1Nc1nc(-c2ccncc2)nc2ccccc12 [Compound 18, (1S,2R)-1-[(2-pyridin-4-ylquinazolin-4-yl)amino]-2,3-dihydro-1H-inden-2-ol] | < 0.05 µM |
| OC[C@H]1C[C@@H](Nc2nc(-c3ccccc3)nc3ccccc23)[C@H](O)[C@@H]1O [Compound 30, (1S,2R,3R,5R)-3-(hydroxymethyl)-5-[(2-phenylquinazolin-4-yl)amino]cyclopentane-1,2-diol] | ≥ 10 µM |
| OCCNc1nc(-c2ccncc2)nc2ccccc12 [Compound 5, 2-[(2-pyridin-4-ylquinazolin-4-yl)amino]ethanol] | ≥ 10 µM |
| c1ccc2c(NC3CCCC3)nc(-c3ccncc3)nc2c1 [Compound 3, N-cyclopentyl-2-pyridin-4-ylquinazolin-4-amine] | 1 to 10 µM |
| OC[C@H](Nc1nc(-c2ccncc2)nc2ccccc12)c1ccccc1 [Compound 56, (2R)-2-phenyl-2-[(2-pyridin-4-ylquinazolin-4-yl)amino]ethanol] | 1 to 10 µM |
| O[C@@H]1Cc2ccccc2[C@@H]1Nc1nc(-c2ccncc2)nc2ccc(Br)cc12 [Compound 45, (1S,2R)-1-[(6-bromo-2-pyridin-4-ylquinazolin-4-yl)amino]-2,3-dihydro-1H-inden-2-ol] | < 0.05 µM |
| C[C@H](CO)Nc1nc(-c2ccncc2)nc2ccccc12 [Compound 41, (2R)-2-[(2-pyridin-4-ylquinazolin-4-yl)amino]propan-1-ol] | ≥ 10 µM |
| C[C@H](O)CNc1nc(-c2ccncc2)nc2ccccc12 [Compound 42, (2S)-1-[(2-pyridin-4-ylquinazolin-4-yl)amino]propan-2-ol] | ≥ 10 µM |
| COc1cc2nc(-c3ccncc3)nc(N[C@H]3c4ccccc4C[C@H]3O)c2cc1OC [Compound 46, (1S,2R)-1-{[6,7-bis(methyloxy)-2-pyridin-4-ylquinazolin-4-yl]amino}-2,3-dihydro-1H-inden-2-ol] | 0.05 to 1 µM |
| O[C@@H]1Cc2ccccc2[C@@H]1Nc1nc(-c2cnccn2)nc2ccccc12 [Compound 58, (1S,2R)-1-[(2-pyrazin-2-ylquinazolin-4-yl)amino]-2,3-dihydro-1H-inden-2-ol] | ≥ 10 µM |
| O[C@@H]1Cc2ccccc2[C@@H]1Nc1ccnc(-c2ccncc2)n1 [Compound 57, (1S,2R)-1-[(2-pyridin-4-ylpyrimidin-4-yl)amino]-2,3-dihydro-1H-inden-2-ol] | 0.05 to 1 µM |
| OC[C@@H](Nc1nc(-c2ccncc2)nc2ccccc12)c1ccccc1 [Compound 55, (2S)-2-phenyl-2-[(2-pyridin-4-ylquinazolin-4-yl)amino]ethanol] | 1 to 10 µM |
| O[C@H]1Cc2ccccc2[C@H]1Nc1nc(-c2cccnc2)nc2ccccc12 [Compound 34, (1R,2S)-1-[(2-pyridin-3-ylquinazolin-4-yl)amino]-2,3-dihydro-1H-inden-2-ol] | ≥ 10 µM |
| O[C@@H]1CCC[C@H]1Nc1nc(-c2ccccc2)nc2ccccc12 [Compound 28, (1R,2R)-2-[(2-phenylquinazolin-4-yl)amino]cyclopentanol] | ≥ 10 µM |
| OC[C@@H]1Cc2ccccc2N1c1nc(-c2ccncc2)nc2ccccc12 [Compound 40, [(2S)-1-(2-pyridin-4-ylquinazolin-4-yl)-2,3-dihydro-1H-indol-2-yl]methanol] | ≥ 10 µM |
| O[C@H]1Cc2ccccc2[C@H]1Nc1nc(-c2ccccn2)nc2ccccc12 [Compound 38, (1R,2S)-1-[(2-pyridin-2-ylquinazolin-4-yl)amino]-2,3-dihydro-1H-inden-2-ol] | ≥ 10 µM |
| CCc1cc(-c2nc(N[C@@H]3c4ccccc4C[C@@H]3O)c3ccccc3n2)ccn1 [Compound 44, (1R,2S)-1-{[2-(2-ethylpyridin-4-yl)quinazolin-4-yl]amino}-2,3-dihydro-1H-inden-2-ol] | ≥ 10 µM |
